Data taken from ChEMBL document CHEMBL4118105, “High-Affinity Peptidomimetic Inhibitors of the DCN1-UBC12 Protein-Protein Interaction” (J Med Chem, 2018).
Non-standard residues stand in square brackets, D forms with d. Residues, ends and D or L forms follow the SMILES beside them. *: point of attachment. 2Nal = N[C@@H](Cc1ccc2ccccc2c1)C(=O)O; Cyclopropanecarbonyl = O=C(C1CC1)*; NHPhenethyl = c1ccc(CCN*)cc1; Isovaleryl = CC(C)CC(=O)*; Isobutyryl = CC(C)C(=O)*; Propionyl = CCC(=O)*; Butyryl = CCCC(=O)*; Moc = COC(=O)*

target: DCN1-like protein 1 (Homo sapiens, UniProt Q96GG9); experiment: Displacement of (S)-N1-((19S,22S)-26-Amino-19-carbamoyl-1-(3',6'-dihydroxy-3-oxo-3H-spiro[isobenzofuran-1,9'-xanthen]-5-yl)-1,13,21-trioxo-5,8,11-trioxa-2,14,20-triazahexacosan-22-yl)-2-((2S,5S,8S,11S,14S,17S,20S,23S,26S)-2-(3-amino-3-oxopropyl)-5,20-bis(4-aminobutyl)-14-benzyl-23-((S)-sec-butyl)-11-(hydroxymethyl)-8,17-diisobutyl-26-(naphthalen-2-ylmethyl)-4,7,10,13,16,19,22,25,28-nonaoxo-3,6,9,12,15,18,21,24,27-nonaazanonacosanamido)pentanediamide from recombinant N-terminal His6-tagged human DCN1 (58 to 259 residues) expressed in Escherichia coli Rosetta2 cells after 30 mins by fluorescence polarization assay
Sequence (Q96GG9 whole entry, the tested form may be a part): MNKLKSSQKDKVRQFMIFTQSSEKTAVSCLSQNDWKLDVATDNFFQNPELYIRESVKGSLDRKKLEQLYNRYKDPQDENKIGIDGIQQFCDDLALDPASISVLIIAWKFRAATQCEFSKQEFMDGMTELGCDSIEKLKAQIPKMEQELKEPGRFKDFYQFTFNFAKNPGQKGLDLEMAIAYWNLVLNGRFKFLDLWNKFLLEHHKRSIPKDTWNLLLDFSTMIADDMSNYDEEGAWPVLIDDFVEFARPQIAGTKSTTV

Row | Compound | Ki [µM] | IC50 [µM]
1 | CC[C@H](C)[C@H](NC(=O)[C@H](Cc1ccc2ccccc2c1)NC(=O)CC(C)C)C(=O)N[C@@H](CCCCN)C(=O)N[C@@H](CC(C)C)C(N)=O (Isovaleryl-[2Nal]IKL-NH2) |  | > 20
2 | CCC(=O)N[C@@H](Cc1nc2c(F)cccc2s1)C(=O)N[C@H](C(=O)N[C@@H](CCCCN)C(=O)NC(c1ccccc1)c1ccccc1)C1CCCC1 | 1.03 | 4.92
3 | CC[C@H](C)[C@H](NC(=O)[C@H](Cc1ccc2ccccc2c1)NC(=O)C(C)C)C(=O)N[C@@H](CCCCN)C(=O)N[C@@H](CC(C)C)C(N)=O (Isobutyryl-[2Nal]IKL-NH2) | 3.5 | 16.5
4 | CC[C@H](C)[C@H](NC(=O)[C@H](Cc1ccc2ccccc2c1)NC(C)=O)C(=O)N[C@@H](CCCCN)C(=O)N[C@@H](CC(C)C)C(N)=O (Ac-[2Nal]IKL-NH2) | 3.6 | 16.8
5 | CCC(=O)N[C@@H](Cc1ccc2ccccc2c1)C(=O)N[C@@H](CC(F)(F)F)C(=O)N[C@@H](CCCCN)C(=O)NC(c1ccccc1)c1ccccc1 | 0.672 | 3.27
6 | CCCC(=O)N[C@@H](Cc1ccc2ccccc2c1)C(=O)N[C@H](C(=O)N[C@@H](CCCCN)C(=O)N[C@@H](CC(C)C)C(N)=O)[C@@H](C)CC (Butyryl-[2Nal]IKL-NH2) | 8 | 37
7 | CC[C@H](C)[C@H](NC(=O)[C@H](Cc1ccc2ccccc2c1)NC(=O)OC)C(=O)N[C@@H](CCCCN)C(=O)N[C@@H](CC(C)C)C(N)=O (Moc-[2Nal]IKL-NH2) |  | > 50
8 | CC[C@H](C)[C@H](NC(=O)[C@H](Cc1ccc2ccccc2c1)NC(=O)C1CC1)C(=O)N[C@@H](CCCCN)C(=O)N[C@@H](CC(C)C)C(N)=O (Cyclopropanecarbonyl-[2Nal]IKL-NH2) | 5.4 | 25.1
9 | CC[C@H](C)[C@H](NC(=O)[C@H](CCSC)NC(C)=O)C(=O)N[C@@H](CCCCN)C(=O)N[C@@H](CC(C)C)C(N)=O (Ac-MIKL-NH2) | 130 | 599
10 | CCC(=O)N[C@@H](Cc1ccc2ccccc2c1)C(=O)N[C@H](C(=O)N[C@@H](CCCCN)C(=O)NCCc1ccccc1)[C@@H](C)CC (Propionyl-[2Nal]-Ile-Lys-NHPhenethyl) | 2.5 | 10.8
11 | CCC(=O)N[C@@H](Cc1ccc2ccccc2c1)C(=O)N[C@@H](CC(C)(C)C)C(=O)N[C@@H](CCCCN)C(=O)NC(c1ccccc1)c1ccccc1 | 0.0429 | 

Second part, the molecule after the results:

Row | Ki [µM] | IC50 [µM] | Compound
12 | 0.16 |  | CCC(=O)N[C@@H](Cc1ccc2ccccc2c1)C(=O)N[C@H](C(=O)N[C@@H](CCCCN)C(=O)N[C@@H]1CCc2ccccc21)[C@@H](C)CC
13 | 0.084 | 0.55 | CCC(=O)N[C@@H](Cc1ccc2ccccc2c1)C(=O)N[C@H](C(=O)N[C@@H](CCCCN)C(=O)N[C@@H]1CCCc2ccccc21)[C@@H](C)CC
14 | 0.38 |  | CCC(=O)N[C@@H](Cc1ccc2ccccc2c1)C(=O)N[C@H](C(=O)N[C@@H](CCCCN)C(=O)N[C@H]1CCc2ccccc21)[C@@H](C)CC
15 | 0.14 |  | CCC(=O)N[C@@H](Cc1ccc2ccccc2c1)C(=O)N[C@H](C(=O)N[C@@H](CCCCN)C(=O)N[C@H]1CCCc2ccccc21)[C@@H](C)CC
16 | 0.0973 | 0.613 | CCC(=O)N[C@@H](Cc1ccc2ccccc2c1)C(=O)N[C@H](C(=O)N[C@@H](CCCCN)C(=O)NC(c1ccccc1)c1ccccc1)C1CCCCC1
17 | 0.097 |  | CCC(=O)N[C@@H](Cc1ccc2ccccc2c1)C(=O)N[C@H](C(=O)N[C@@H](CCCCN)C(=O)NC(c1ccccc1)c1ccccc1)[C@@H](C)CC
18 | 0.0886 |  | CCC(=O)N[C@@H](Cc1nc2cc(Cl)ccc2s1)C(=O)N[C@H](C(=O)N[C@@H](CCCCN)C(=O)NC(c1ccccc1)c1ccccc1)C1CCCC1
19 | 0.174 |  | CCC(=O)N[C@@H](Cc1ccc2ccccc2c1)C(=O)N[C@@H](Cc1cccs1)C(=O)N[C@@H](CCCCN)C(=O)NC(c1ccccc1)c1ccccc1
20 | 0.224 |  | CCC(=O)N[C@@H](Cc1nc2cc(F)ccc2s1)C(=O)N[C@H](C(=O)N[C@@H](CCCCN)C(=O)NC(c1ccccc1)c1ccccc1)C1CCCC1
